The results in this text go back to paper PMC9774334 (ACS Omega, 2022).

Assay [1] deals with T1, TmaFuc (Thermotoga maritima, UniProt Q9WYE2).
T1 sequence (Q9WYE2 1-449): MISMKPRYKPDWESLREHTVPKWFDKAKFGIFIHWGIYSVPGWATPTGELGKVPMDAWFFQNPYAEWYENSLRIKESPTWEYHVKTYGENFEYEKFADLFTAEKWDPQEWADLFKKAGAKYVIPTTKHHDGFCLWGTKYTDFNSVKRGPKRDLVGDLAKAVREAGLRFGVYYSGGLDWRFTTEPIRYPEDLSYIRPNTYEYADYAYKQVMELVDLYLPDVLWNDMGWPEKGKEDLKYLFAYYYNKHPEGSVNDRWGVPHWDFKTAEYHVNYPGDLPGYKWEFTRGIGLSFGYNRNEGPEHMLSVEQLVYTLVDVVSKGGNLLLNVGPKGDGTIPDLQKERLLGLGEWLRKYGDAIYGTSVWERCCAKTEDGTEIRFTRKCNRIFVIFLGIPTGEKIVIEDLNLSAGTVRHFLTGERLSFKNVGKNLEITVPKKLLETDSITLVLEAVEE
Description: p-nitrophenol release at […] nm. The format is biochemical. The conditions noted are these: 2 mM substrate.

In assay [2] the target is T2, ClAgl29B (Cecembia lonarensis, UniProt K1KV82).
T2 sequence (K1KV82 21-586): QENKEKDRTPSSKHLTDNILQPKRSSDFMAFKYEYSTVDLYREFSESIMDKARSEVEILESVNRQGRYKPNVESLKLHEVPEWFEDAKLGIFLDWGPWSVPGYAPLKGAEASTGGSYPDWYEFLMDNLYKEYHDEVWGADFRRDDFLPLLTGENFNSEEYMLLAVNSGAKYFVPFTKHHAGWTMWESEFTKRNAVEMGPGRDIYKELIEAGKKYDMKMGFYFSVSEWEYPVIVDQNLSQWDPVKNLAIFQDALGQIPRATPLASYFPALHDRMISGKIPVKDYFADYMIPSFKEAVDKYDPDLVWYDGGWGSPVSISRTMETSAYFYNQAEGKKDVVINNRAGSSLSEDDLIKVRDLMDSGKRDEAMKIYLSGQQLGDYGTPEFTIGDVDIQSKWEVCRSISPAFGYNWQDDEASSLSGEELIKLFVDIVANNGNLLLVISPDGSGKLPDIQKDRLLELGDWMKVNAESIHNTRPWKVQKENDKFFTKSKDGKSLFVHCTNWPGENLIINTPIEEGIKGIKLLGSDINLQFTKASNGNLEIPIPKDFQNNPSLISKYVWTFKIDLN
As to the kind of experiment: X-ray crystal structure, […] Å, soaking. The format is binding. The conditions noted are these: active site; crystal pH 3.5, 30 mM L-glucose soak.

With `C[C@@H]1O[C@@H](Oc2ccc([N+](=O)[O-])cc2)[C@@H](O)[C@H](O)[C@@H]1O` [PNP α-L-Fuc], the “p-nitrophenol release at 400 nm” value in assay [1] is “TmaFuc hydrolyzed PNP α-L-Fuc”.
In the case of `OC[C@@H]1O[C@H](O)[C@@H](O)[C@H](O)[C@H]1O` [β-L-glucose], the “X-ray crystal structure, 1.7 Å, soaking” value in assay [2] is given as “The ClAgl29B complex obtained with β-L-glucose by a soaking experiment”.
